{
  "source": "patent US11413305B2",
  "about": "“Use of agar-derived oligosaccharides for inhibiting growth of Staphylococcus” (Korea University Research and Business Foundation, priority 2017, dated 2022)",
  "key": {"[1]": {"system": "S. aureus (KCCM12256)", "experiment": "Growth inhibition experiment in liquid medium (absorbance at 600 nm)", "assay_type": "cell-based, Staphylococcus aureus", "settings": "for concentration at which growth was completely inhibited: liquid M9-based medium, 37° C., 200 rpm, OD600", "procedure": "(§1) S. aureus (KCCM12256) and S. epidermidis (KCCM35494) distributed from the Korean Culture Center of Microorganisms were used. The medium for Staphylococci used a M9 salt supplemented with 2 mM MgSO4, 0.1 mM CaCl2), 1% (w/v) glucose, 1% (w/v) casamino acid, 1 mM thiamine HCl, and 0.05 mM nicotinamide. The thiamine-HCl solution and the nicotinamide solution were filtered using a filter having a pore size of 0.2 μm, and the other components were autoclaved at 121° C. for 15 minutes and used. After mixing the medium components according to their respective concentrations, the mixture was filtered again using a filter having a pore size of 0.2 μm.\n(§2) In the growth inhibition experiment, the S. aureus and the S. epidermidis were seed-cultured at 37° C. and 200 rpm for 24 hours and then subcultured. After incubation up to the mid-exponential phase (OD600=2.5) through the subculture, the bacteria were inoculated into liquid media containing the agarooligosaccharide at concentrations of 0 mg/mL, 1 mg/mL, 2 mg/mL, and 4 mg/mL so that the initial absorbance (i.e., initial cell population) thereof at 600 nm was 0.01. Subsequently, each of the above was dispensed in 200 μl aliquots into a 96-well plate, and absorbance was measured while culturing the bacteria. The incubation and the absorbance measurement were performed using Synergy HTX Multi-Mode Reader commercially available from BioTek Instruments, Inc. The incubation was performed at 37° C. and 200 rpm, and the absorbance was measured at a wavelength of 600 nm. […]\nThe growth inhibition test of Staphylococci was carried out in the same manner as in Example 1, except that AHG (1, 2, 4, and 8 mg/mL) was used instead of the agarooligosaccharide. […]"}, "[2]": {"system": "S. epidermidis (KCCM35494)", "experiment": "Growth inhibition experiment in liquid medium (absorbance at 600 nm)", "assay_type": "cell-based, Staphylococcus epidermidis", "procedure": "as §1\nas §2, with “bacteria.” for “bacteria. The incubation and the absorbance measurement were performed using Synergy HTX Multi-Mode Reader commercially available from BioTek Instruments, Inc. The incubation was performed at 37° C. and 200 rpm, and the absorbance was measured at a wavelength of 600 nm.”"}, "[3]": {"system": "S. epidermidis", "experiment": "Disk diffusion assay", "assay_type": "cell-based, Staphylococcus epidermidis", "settings": "50 to 150 μg/disk, 37° C., 16 hours", "procedure": "(§3) The disk diffusion assay is a common method of determining whether microbial growth is inhibited based on the diffusion of antibiotics in a disk. Accordingly, agarobiose was dispensed in an amount of 0 to 150 μg/disk on each disk to observe the growth of Staphylococci.\n(§4) To this end, a solid medium for a disk diffusion assay having the same composition as in Example 1 was used, except that 1.5% agar was added to the liquid medium. […] First, the disks were prepared such that they contained agarobiose in an aqueous state in amounts of 0, 50, 100, and 150 μg/disk. Subsequently, a staphylococcal culture was streaked on the provided solid medium using a sterile cotton swab so that the Staphylococci were evenly distributed on the medium, and the prepared disks were placed on the solid medium inoculated with the bacteria. Subsequently, after culturing the bacteria at 37° C. for 16 hours, it was observed that a zone of inhibition appeared."}, "[4]": {"system": "S. aureus", "experiment": "Disk diffusion assay", "assay_type": "cell-based, Staphylococcus aureus", "settings": "50 to 150 μg/disk, 37° C., 16 hours", "procedure": "as §3, §4"}, "[5]": {"system": "S. epidermidis", "experiment": "Number of viable Staphylococci over culture time (CFU count)", "assay_type": "cell-based, Staphylococcus epidermidis", "procedure": "(§5) In order to observe changes in staphylococcal growth according to culture time after the addition of agarobiose, the number of viable Staphylococci was monitored for 16 hours or 32 hours. To this end, the initial cell concentration was adjusted to an average of about 6.5×10^6 CFU/mL for both S. aureus and S. epidermidis, and the experiment was carried out at agarobiose concentrations of 0, 2, and 4 mg/mL.\n(§6) The same culture conditions as in the method of Example 1 were applied, except that agarobiose concentrations of 0, 2, and 4 mg/mL were applied. At a working volume of 10 mL, the number of viable cells instead of absorbance was measured. To this end, the original sample was taken at each time point, diluted to 10^−3 to 10^−6 using 0.85% physiological saline, and then dispensed onto a trypticase soy agar (TSA; BD Bioscience, Franklin Lakes, N.J.) medium. After 16 to 24 hours, colony-forming unit (CFU)/mL was calculated and converted based on a dilution factor."}, "[6]": {"system": "S. aureus", "experiment": "Number of viable Staphylococci over culture time (CFU count)", "assay_type": "cell-based, Staphylococcus aureus", "settings": "agarobiose concentrations of 2 mg/mL or more", "procedure": "as §5, §6"}, "[7]": {"system": "S. aureus", "experiment": "LIVE/DEAD BacLight cell viability assay", "assay_type": "cell-based, Staphylococcus aureus", "settings": "agarobiose 2 mg/mL, 8 hours post-treatment", "procedure": "The effect of the addition of agarobiose on the survival of S. aureus was tested using an Invitrogen LIVE/DEAD BacLight bacterial viability kit. […] To this end, after adjusting the number of S. aureus in a liquid medium containing agarobiose at 2 mg/mL so that the absorbance at 600 nm was 0.5, the S. aureus was cultured at 37° C. and 200 rpm. At 0 and 8 hours after incubation, the cells were washed with 0.85% physiological saline, resuspended in PBS buffer, and stained in accordance with the kit's protocol. Equal volumes of SYTO® 9 and propidium iodide reagents included in the kit were added and then reacted for 15 minutes in the dark."}, "[8]": {"settings": "liquid medium, OD600, 1, 2, 4 and 8 mg/mL tested"}},
  "data": [
    {"smiles": "OC[C@H]1O[C@@H](O[C@H]2[C@H]3OC[C@@H]2OC(O)[C@H]3O)[C@H](O)[C@@H](O)[C@H]1O", "note": "(mixture of isomers) [agarobiose]", "values": [
      {"measurement": "concentration at which growth was completely inhibited", "setting": "[1]", "result": 2, "unit": "mg/mL"},
      {"measurement": "concentration at which growth was completely inhibited", "setting": "[2]; liquid M9-based medium, 37° C., 200 rpm, OD600", "result": 2, "unit": "mg/mL"},
      {"measurement": "growth around disk (zone of inhibition)", "setting": "[3]", "result": "did not grow at all"},
      {"measurement": "growth around disk (zone of inhibition)", "setting": "[4]", "result": "did not grow at all"},
      {"measurement": "decrease in number of viable cells from the initial number", "setting": "[5]; 2 mg/mL and 4 mg/mL, culturing for 16 to 32 hours, initial 6.5×10^6 CFU/mL", "result": "≤ 1.5 log10 (CFU/mL)"},
      {"measurement": "growth (viable cell count)", "setting": "[5]; agarobiose concentrations of 2 mg/mL or more", "result": "inhibited"},
      {"measurement": "growth (viable cell count)", "setting": "[6]", "result": "inhibited"},
      {"measurement": "cell viability (green/red fluorescence)", "setting": "[7]", "result": "caused the death of S. aureus"}
    ]},
    {"smiles": "O=C[C@@H](O)[C@@H]1OC[C@H](O)[C@H]1O", "note": "[AHG, 3,6-anhydro-L-galactose]", "values": [
      {"measurement": "concentration at which growth was almost completely inhibited", "setting": "[1]; [8]", "result": 8, "unit": "mg/mL"},
      {"measurement": "concentration at which growth was almost completely inhibited", "setting": "[2]; [8]", "result": 8, "unit": "mg/mL"}
    ]},
    {"smiles": "O=C[C@H](O)[C@@H](O)[C@@H](O)[C@H](O)CO", "note": "[galactose, reference compound]", "values": [
      {"measurement": "growth inhibition", "setting": "[1]; [8]", "result": "not inhibited at all"}
    ]},
    {"smiles": "OC[C@H]1OC(O)[C@H](O)[C@@H](O[C@@H]2O[C@H]3CO[C@@H]([C@@H]2O)[C@@H]3O)[C@H]1O", "note": "(stereo partly drawn) [neoagarobiose, reference compound]", "values": [
      {"measurement": "concentration at which growth was completely inhibited", "setting": "[1]", "result": "> 20", "unit": "mg/mL"}
    ]}
  ]
}
